# Data: patent publication US7846901B2, “Method for inhibiting or treating intestinal damage caused by radiotherapy or chemotherapy comprising administering substance-P” (University-Industry Cooperation Group of Kyunghee University, priority 2007, dated 2010)
# “Also recorded” adds a separate entry of the source. Where no end group is shown, it is not given here.
# Assays:
# Assay type in all cases: in vivo, C57b1/6 mice
# [1] = test system: crypt cells and villi of small intestine; assay: H&E staining: crypt cell counts and villous heights after gamma ray irradiation
# Procedure: (§1) 8-week-old C57b1/6 mice (Central Lab Animal Inc., Seoul, Korea) were irradiated with gamma rays to establish an animal model of gastrointestinal damage, and gastrointestinal protective and regenerative effects of Substance-P were then examined.
# (§2) For this purpose, C57b1/6 mice were divided into two groups, an experimental group and a control group, each consisting of 5 animals (n=5). 100 nM of Substance-P (Cat. No. 05-23-0600, Calbiochem) was injected to the experimental group mice via tail vein, 24 hours prior to gamma ray irradiation. 24 hours later, animals were irradiated with a gamma irradiator at a dose of 7.6 Gy. Immediately after gamma ray irradiation, 100 nM of Substance-P was intravenously injected once more into animals of the experimental group. The control group was given PBS.
# (§3) 4.5 hours, 3 days, and 7 days later, mice of each group were euthanized by CO2 asphyxiation and then received abdominal incision. Small intestines were isolated and fixed in a 3.7% formaldehyde solution for tissue fixation, for 1 to 2 days. Following the tissue processing process, the tissues were hardened in a paraffin block. The formalin-fixed paraffin tissues were sectioned to a 5 μm thickness using a microtome and then attached to a coated slide glass which was then dried, followed by TUNEL staining, Brd-U immunostaining and H&E staining. For Brd-U immunostaining, 2 hours prior to sacrifice of mice, 50 mg/kg of 5-bromo-2-deoxyuridine (Brd-U, Cat. No. B-9285, Sigma) was introduced into dividing cells by peritoneal injection.
# After the tissue section slide was H&E-stained and photographed, crypt cell counts and villous heights were measured and averaged, respectively.
# crypt cells [2] = assay: TUNEL assay for apoptosis of crypt cells after gamma ray irradiation
# Procedure: as §1, §2
# 4.5 hours, 3 days, and 7 days later, mice of each group were euthanized by CO2 asphyxiation and then received abdominal incision. […]
# Dead cells were detected by fluorescence labeling of damaged DNA molecules through TUNEL assay using an In Situ Cell Death Detection Kit (Cat. No. 1 684 795, Roche Molecular Biochemicals).
# The tissue section slide was deparaffinized with xylene and hydrated in alcohol. […] Nuclear staining was carried out using 4′,6-diamidino-2-phenylindole (DAPI, Cat. No. D-9542, Sigma) and the stained tissue was examined in a green field of 515 to 565 nm under a fluorescence microscope.
# crypt cells [3] = assay: Brd-U immunohistochemical staining for proliferation of crypt cells after gamma ray irradiation
# Procedure: as §1, §2
# as §3, with “Small” for “4.5 hours, 3 days, and 7 days later, mice of each group were euthanized by CO2 asphyxiation and then received abdominal incision. Small”
# Proliferative effects of Substance-P on crypt cells were examined by Brd-U immunohistochemical staining.
# The tissue section slide was deparaffinized with xylene and hydrated in alcohol. The tissue section was pretreated with 2N HCl for 30 min, and endogenous peroxidase activity was blocked with addition of H2O2 for 10 min. The tissue section was treated with 0.3% Triton X-100 for 5 min to increase cell permeability. Then, 2% serum in a Vector ABC kit (PK-6100, Vector Laboratories Inc.) was added to block the cells. BrdU antibodies (Cat. No. 1 170 376, Roche Molecular Biochemicals) and 2% serum were diluted in a ratio of 6:100, followed by reaction at room temperature for 1 hour. […]
# [4] = radiation-induced gastrointestinal damage in mice, vs non-treated control group
substance,measurement,setting,value
"Substance-P (RPKPQQFFGLM-NH2; ends and bridges not checked; UniProt P20366 58-68, looked up) [11-amino acid neuropeptide; Cat. No. 05-23-0600, Calbiochem]",villous atrophy (villous height),"[1]; Day 3 after irradiation, vs group without Substance-P",less villous atrophy
same,number of viable crypt cells (crypt cell survival),"[1]; Days 1, 3 and 7 after irradiation (FIG. 3), vs group without Substance-P",higher number of viable crypt cells
same,"recovery of damaged crypt cells and villi / recovery time from gastrointestinal damage, summary statement",[1]; [4],faster recovery of damaged crypt cells and villi to a normal state; also recorded: recovery time from gastrointestinal damage is also shortened
same,apoptosis of crypt stem cells (TUNEL),"crypt cells [2]; 4.5 hours after 7.6 Gy gamma rays, Substance-P 100 nM i.v. 24 h before and immediately after irradiation, vs control group (PBS)",significant reduction in apoptosis of crypt stem cells
same,"apoptotic rate of crypt cells, summary statement",crypt cells [2]; [4],significantly lower apoptotic rate of crypt cells; also recorded: apoptosis of stem cells is decreased
same,BrdU staining of dividing crypt cells,"crypt cells [3]; Day 1 after gamma ray irradiation, with vs without Substance-P",no significant difference in staining of cells
same,BrdU staining of dividing crypt cells,crypt cells [3]; Day 3 after gamma ray irradiation,intense staining in large numbers of cells
same,"gastrointestinal recovery through crypt hyperplasia, conclusion from BrdU staining",crypt cells [3]; after gamma ray irradiation (FIG. 2),earlier gastrointestinal recovery
